Assay results as given in ChEMBL document CHEMBL3351799, “Bioavailable pyrrolo-benzo-1,4-diazines as Na(v)1.7 sodium channel blockers for the treatment of pain” (Bioorg Med Chem Lett, 2014).

Experiments:
in vivo [1] = settings: Sprague-Dawley, rat, plasma
[2] = Drug level in Sprague-Dawley rat brain after 6 hrs; assay type: ADME, tissue-based; settings: read-out: Drug uptake
in vivo [3] = settings: Sprague-Dawley, rat, brain/plasma

| concentration at 6 h [2] [ng/g] | Kp at 6 h (in vivo [3]) | Structure (SMILES) | AUC at 6 h (in vivo [1]) [µM·h] |
| --- | --- | --- | --- |
| – | – | COc1ccc2c(c1)NC1(CCN(C(=O)c3cccc4ncccc34)CC1)c1cccn1-2 | 16.2 |
| 257 | 0.2 | COc1ccc2c(c1)NC1(CCN(C(=O)c3ccc(OC)c(N(C)C)c3)CC1)c1cccn1-2 | 20.3 |
